Literature values, collected in patent US20160021884A1, “STABLE SOLUTIONS OF 1,2-BENZISOTHIAZOLIN-3-ONE” (TITAN CHEMICALS LIMITED, priority 2014, published 2016).

Conditions: 5° C., 4 weeks

For O=c1[n-]sc2ccccc12.[Li+] [lithium salt of BIT], the “Stability of purely aqueous solution” value is listed as “stable at 5 °C for 4 weeks”.
